In patent publication US10703746B2, “Mutant IDH1 inhibitors useful for treating cancer” (THE UNITED STATES OF AMERICA, AS REPRESENTED BY THE …, priority 2014, dated 2020):

Assays:
[1] = target: IDH1 R132C (Homo sapiens, UniProt O75874, R132C); experiment: IDH1 R132C enzymatic assay (NADPH depletion coupled to diaphorase/resazurin); type: biochemical
Method in brief: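 NADPH depletion, read via diaphorase/resazurin coupling, after adding substrate at 0.6 mM α-KG and 0.012 mM NADPH. Beforehand, 0.00032 mg/mL enzyme sat with compound 30 min at room temperature in pH 6.5 potassium phosphate buffer with MgCl2, glycerol and BSA.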

[2] = target: IDH1 R132H (Homo sapiens, UniProt O75874, R132H); experiment: IDH1 R132H enzymatic assay (NADPH depletion coupled to diaphorase/resazurin); type: biochemical
[3] = IDH1 R132C enzymatic inhibition, IC50 class
[4] = IDH1 R132H enzymatic inhibition, IC50 class
[5] = enzymatic inhibition, IDH1 R132C
[6] = enzymatic inhibition, IDH1 R132H

Chain of IDH1 R132H (O75874 whole entry R132H): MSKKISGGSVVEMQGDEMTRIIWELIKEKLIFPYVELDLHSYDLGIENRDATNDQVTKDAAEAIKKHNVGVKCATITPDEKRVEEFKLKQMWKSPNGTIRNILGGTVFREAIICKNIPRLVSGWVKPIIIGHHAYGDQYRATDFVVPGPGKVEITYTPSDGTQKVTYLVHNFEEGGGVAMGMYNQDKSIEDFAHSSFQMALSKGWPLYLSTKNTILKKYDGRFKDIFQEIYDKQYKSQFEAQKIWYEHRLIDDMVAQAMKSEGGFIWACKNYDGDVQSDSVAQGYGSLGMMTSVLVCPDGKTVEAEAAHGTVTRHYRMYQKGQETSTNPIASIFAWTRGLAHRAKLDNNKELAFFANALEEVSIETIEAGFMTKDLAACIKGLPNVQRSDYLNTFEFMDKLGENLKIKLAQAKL
Chain of IDH1 R132C (O75874 whole entry R132C): as the sequence (O75874 whole entry R132H) above, with H132C counted along it

SMILES	IC50 [1, 3] [nM]	IC50 [2, 4] [nM]	IC50 [1, 5] [nM]	IC50 [2, 6] [nM]
CN1CCN(Cc2ccc(-n3c4c(cc(-c5nc(-c6ccc(Cl)cc6)cs5)c3=O)C(=O)CCC4)cc2)CC1 [Compound 360]	> 20000	> 20000	–	–
CCc1cccc(CC)c1-n1c(C=C(C)C)c(C(=O)N2CCNCC2)cc(-c2nn(-c3ccc(Cl)cc3)cc2Br)c1=O [Compound 363]	5000 to 20000	1000 to 5000	–	–
COc1ccc(Cl)c(-n2c(CC(C)C)c(C(=O)N3CCNCC3)cc(-c3nc(-c4ccc(Cl)cc4)cs3)c2=O)c1 [Compound 364]	300 to 1000	< 300	–	–
CCc1cccc(CC)c1-n1c(CC2CCNCC2)c(C(=O)NC)cc(-c2nc(-c3ccc(Cl)cc3)cs2)c1=O [Compound 365]	5000 to 20000	5000 to 20000	–	–
O=C1CCCc2c1cc(-c1nc(-c3ccc(Cl)cc3)cs1)c(=O)n2-c1ccncc1 [Compound 368]	> 20000	> 20000	–	–
CC1(C)CC(=O)c2cc(-c3nc(-c4ccc(Cl)cc4)cs3)c(=O)n(-c3sccc3C(N)=O)c2C1 [Compound 369]	5000 to 20000	5000 to 20000	–	–
CCc1cccc(CC)c1-n1c(CCC(F)(F)F)c(C(=O)N2CCNCC2)cc(-c2nc(-c3ccc(Cl)cc3)cs2)c1=O [Compound 373]	300 to 1000	300 to 1000	–	–
COc1cccc(C)c1-n1c2c(cc(-c3nc(-c4ccc(Cl)cc4)cs3)c1=O)C(=O)CCC2 [Compound 375]	1000 to 5000	1000 to 5000	–	–
Cn1nccc1-n1c2c(cc(-c3nc(-c4ccc(Cl)cc4)cs3)c1=O)C(=O)CC(C)(C)C2 [Compound 382]	1000 to 5000	5000 to 20000	–	–
COc1ccc(C(F)(F)F)cc1-n1c(C=C(C)C)c(C(=O)N2CCNCC2)cc(-c2nc(-c3ccc(Cl)cc3)cs2)c1=O [Compound 383]	300 to 1000	300 to 1000	–	–
COc1ccc(Cl)c(-n2c(C=C(C)C)c(C(=O)N3CCNCC3)cc(-c3ccn(-c4ccc(Cl)cc4)n3)c2=O)c1 [Compound 389]	300 to 1000	< 300	–	–
CCc1cccc(CC)c1-n1c(CC(C)C)c(CO)cc(-c2nc(-c3ccc(Cl)cc3)cs2)c1=O [Compound 391]	300 to 1000	300 to 1000	–	–
CCc1cccc(CC)c1-n1c(O)c(C(=O)CC(C)C)cc(-c2nc(-c3ccc(Cl)cc3)cs2)c1=O [Compound 392]	5000 to 20000	5000 to 20000	–	–
CCc1cccc(CC)c1-n1c(COCCOC)c(C(=O)N2CCNCC2)cc(-c2nc(-c3ccc(Cl)cc3)cs2)c1=O [Compound 393]	300 to 1000	< 300	–	–
CCc1cccc(CC)c1-n1c(C=C(C)C)c(C(=O)N2CCNC(C(F)(F)F)C2)cc(-c2nc(-c3ccc(Cl)cc3)cs2)c1=O (stereo not shown) [Compound 396]	< 300	< 300	–	–
COc1cccc(Cl)c1-n1c(C=C(C)C)c(C(=O)N2CCNCC2)cc(-c2nc(-c3ccc(Cl)cc3)cs2)c1=O [Compound 397]	< 300	< 300	–	–
CCc1cccc(CC)c1-n1c(C2CCCC2)c(C(=O)N2CCNCC2)cc(-c2nc(-c3ccc(Cl)cc3)cs2)c1=O [Compound 398]	< 300	300 to 1000	–	–
CC(C)=Cc1c(C(=O)N2CCNCC2)cc(-c2nc(-c3ccc(Cl)cc3)cs2)c(=O)n1-c1ccccc1OC(C)C [Compound 399]	< 300	< 300	–	–
CCc1cccc(CC)c1-n1c(C)c(C(=O)N2CCNCC2)c(O)c(C(=O)Nc2nc(-c3ccc(Cl)cc3)cs2)c1=O [Compound 400]	> 20000	> 20000	–	–
CC(C)=Cc1c(C(=O)N2CCNCC2)cc(-c2nc(-c3ccc(Cl)cc3)cs2)c(=O)n1-c1cc(C)cnc1OC(C)C [Compound 401]	< 300	< 300	–	–
CC1(C)CC(=O)c2cc(-c3nc(-c4ccc(Cl)cc4)cs3)c(=O)n(-c3sccc3C#N)c2C1 [Compound 402]	–	–	< 300	300 to 1000
CCOCc1c(C(=O)N2CCNCC2)cc(-c2nc(-c3ccc(Cl)cc3)cs2)c(=O)n1-c1c(CC)cccc1CC [Compound 404]	–	–	< 300	< 300
CCc1cccc(CC)c1-n1c(CC(C)C)c(C(=O)N2CCNCC2)cc(-c2nc(-c3ccc(Cl)nc3)c(C)s2)c1=O [Compound 405]	–	–	< 300	< 300
CCc1ccc(N2CCN(C)CC2)c(CC)c1-n1c2c(cc(-c3nc(-c4ccc(Cl)cc4)cs3)c1=O)C(=O)CC(C)(C)C2 [Compound 406]	–	–	5000 to 20000	5000 to 20000
CCOc1ncc(Cl)cc1-n1c(C=C(C)C)c(C(=O)N2CCNCC2)cc(-c2nc(-c3ccc(C(F)F)cc3)cs2)c1=O [Compound 407]	–	–	300 to 1000	< 300
CCc1cccc(CC)c1-n1c(C=C(C)C)c(C(=O)N2CCNCC2)cc(-c2nc(-c3ccc(Cl)cc3)cs2)c1=O [Compound 408]	–	–	< 300	< 300
CC(C)=Cc1c(C(=O)N2CCNCC2)cc(-c2nc(-c3ccc(Cl)cc3)cs2)c(=O)n1-c1cc(F)ccc1Cl [Compound 409]	–	–	< 300	< 300
CCc1cccc(CC)c1-n1c(C=C(C)C)c(C(=O)N2CCNCC2C(=O)O)cc(-c2nc(-c3ccc(Cl)cc3)cs2)c1=O (stereo not shown) [Compound 410]	–	–	< 300	< 300
COc1cccc(CN2CCN(C)CC2)c1-n1c2c(cc(-c3nc(-c4ccc(Cl)cc4)cs3)c1=O)C(=O)CCC2 [Compound 411]	–	–	5000 to 20000	5000 to 20000
CCc1cccc(CC)c1-n1c(CC(C)C)c(C(=O)N2CCNCC2)cc(-c2nc(Nc3ccc(Cl)cc3)c(C)s2)c1=O [Compound 412]	–	–	5000 to 20000	5000 to 20000

More lines, now with the values ahead:

IC50 [1, 3] [nM]	IC50 [2, 4] [nM]	IC50 [1, 5] [nM]	IC50 [2, 6] [nM]	SMILES
< 300	300 to 1000	–	–	CCc1cccc(CC)c1N1C(=O)C(c2nc(-c3ccc(Cl)cc3)cs2)CC(C(=O)N2CCNCC2)=C1CC(C)C (stereo not shown) [Compound 356]
< 300	< 300	–	–	CC(C)=Cc1c(C(=O)N2CCNCC2)cc(-c2nc(-c3ccc(Cl)cc3)cs2)c(=O)n1-c1cc(C)ccc1Cl [Compound 357]
< 300	< 300	–	–	CCc1cccc(CC)c1-n1c(C=C(C)C)c(C(=O)N2CCNC(=O)C2)cc(-c2nc(-c3ccc(Cl)cc3)cs2)c1=O [Compound 358]
< 300	< 300	–	–	CC(C)=Cc1c(C(=O)N2CCNCC2)cc(-c2nc(-c3ccc(Cl)cc3)cs2)c(=O)n1-c1cc(Cl)ccc1Cl [Compound 359]
< 300	< 300	–	–	COc1ncc(F)cc1-n1c(C=C(C)C)c(C(=O)N2CCNCC2)cc(-c2nc(-c3ccc(Cl)cc3)cs2)c1=O [Compound 361]
< 300	< 300	–	–	CCc1cccc(CC)c1-n1c(C=C(C)C)c(C(=O)N2CCNCC2(C)C)cc(-c2nc(-c3ccc(Cl)cc3)cs2)c1=O [Compound 366]
< 300	< 300	–	–	CC(C)=Cc1c(C(=O)N2CCNCC2)cc(-c2nc(-c3ccc(Cl)cc3)cs2)c(=O)n1-c1c(Cl)cccc1OC(C)C [Compound 367]
< 300	< 300	–	–	CCc1cccc(CC)c1-n1c(C=C(C)C)c(C(=O)N2CCNC(C)C2)cc(-c2nc(-c3ccc(Cl)cc3)cs2)c1=O (stereo not shown) [Compound 370]
< 300	< 300	–	–	CCc1cccc(CC)c1-n1c(C=C(C)C)c(C(=O)N2CCNC(CCO)C2)cc(-c2nc(-c3ccc(Cl)cc3)cs2)c1=O (stereo not shown) [Compound 371]
< 300	< 300	–	–	CC(C)=Cc1c(C(=O)N2CCNCC2)cc(-c2nc(-c3ccc(Cl)cc3)cs2)c(=O)n1-c1ccccc1C(C)(C)C [Compound 372]
< 300	< 300	–	–	CCOc1cccc(Cl)c1-n1c(C=C(C)C)c(C(=O)N2CCNCC2)cc(-c2nc(-c3ccc(Cl)cc3)cs2)c1=O [Compound 374]
< 300	< 300	–	–	CCOc1ccc(F)cc1-n1c(C=C(C)C)c(C(=O)N2CCNCC2)cc(-c2nc(-c3ccc(C(F)F)cc3)cs2)c1=O [Compound 376]
< 300	< 300	–	–	CCc1cccc(CC)c1-n1c(C=C(C)C)c(C(=O)N2CCNCC2)cc(-c2nc(-c3ccc(Cl)cn3)cs2)c1=O [Compound 377]
< 300	< 300	–	–	CCOc1ccc(Cl)cc1-n1c(C=C(C)C)c(C(=O)N2CCNCC2)cc(-c2nc(-c3ccc(C(F)F)cc3)cs2)c1=O [Compound 378]
< 300	< 300	–	–	CCc1ccc(F)cc1-n1c(C=C(C)C)c(C(=O)N2CCNCC2)cc(-c2nc(-c3ccc(C(F)F)cc3)cs2)c1=O [Compound 379]
< 300	< 300	–	–	COc1ccc(OC)c(-n2c(C=C(C)C)c(C(=O)N3CCNCC3)cc(-c3nc(-c4ccc(Cl)cc4)cs3)c2=O)c1 [Compound 380]
< 300	< 300	–	–	CCOc1ccc(F)cc1-n1c(C=C(C)C)c(C(=O)N2CCNCC2)cc(-c2nc(-c3ccc(Cl)cc3)cs2)c1=O [Compound 381]
< 300	< 300	–	–	CC(C)=Cc1c(C(=O)N2CCNCC2)cc(-c2nc(-c3ccc(Cl)cc3)cs2)c(=O)n1-c1c(Cl)cccc1Cl [Compound 384]
< 300	300 to 1000	–	–	CCc1cccc(CC)c1-n1c(CC(C)C)c(C(=O)N2CCNCC2)cc(-c2nc(-c3ccc(Cl)cc3)c(C3CC3)s2)c1=O [Compound 385]
< 300	< 300	–	–	CCOc1ccc(C)cc1-n1c(C=C(C)C)c(C(=O)N2CCNCC2)cc(-c2nc(-c3ccc(C(F)F)cc3)cs2)c1=O [Compound 386]
< 300	< 300	–	–	CCc1cccc(CC)c1-n1c(CC(C)C)c(C(=O)N2CCNCC2)cc(-c2nc(-c3ccc(Cl)cc3)c(C(=O)OC)s2)c1=O [Compound 387]
< 300	< 300	–	–	CCc1cccc(CC)c1-n1c(C=C(C)C)c(C(=O)N2C[C@H]3CC[C@@H](C2)N3)cc(-c2nc(-c3ccc(Cl)cc3)cs2)c1=O [Compound 388]
< 300	300 to 1000	–	–	COc1ccc(Cl)c(-n2c3c(cc(-c4nc(-c5ccc(Cl)cc5)cs4)c2=O)C(=O)CC(C)(C)C3)c1 [Compound 395]
